Test results reported in ChEMBL document CHEMBL6182856, “Novel one-/two-photon excited carbazole/quinolinium photosensitizers manifest nanomolar and hypoxia-resistant tumor photodynamic therapy by accelerating apoptosis, ferroptosis, and autophagy” (Eur J Med Chem, 2025).
Activity calls are given as the source filed them. The calls are words filed in the database; no cut-off is given here.

Tests used:
[1] = Photosensitizing ability of the compound assessed as superoxide radical production measured upon irradiation by DHE probe based assay; type: functional
[2] = system: A549; test: Cytotoxicity against human A549 cells assessed as inhibition of cell growth incubated for 24 hrs measured under normoxia conditions by MTT assay; type: functional, cell-based; conditions: A549, 24 h
[3] = Photosensitizing ability of the compound assessed as hydroxyl radical production measured upon irradiation by HPF probe based assay; type: functional
[4] = Photosensitizing ability of the compound in methanol assessed as singlet oxygen production by measuring quantum yield measured upon irradiation by DPBF based assay; type: functional
[5] = Phototherapeutic index, ratio of IC50 for cytotoxicity against human HT-29 cells measured under normoxia conditions to IC50 for phototoxicity against human HT-29 cells measured under normoxia conditions and after one-photon excitation upon irradiation with light at 520 nm, 200 mW/cm2 for 10 mins; type: functional
[6] = system: 4T1; test: Cytotoxicity against mouse 4T1 cells assessed as inhibition of cell growth incubated for 24 hrs measured under normoxia conditions by MTT assay; type: functional, cell-based; conditions: 4T1, 24 h
[7] = Phototoxicity against human HT-29 cells assessed as inhibition of cell growth incubated for 24 hrs measured under normoxia conditions and after one-photon excitation upon irradiation with light at 520 nm, 200 mW/cm2 for 10 mins by MTT assay; type: functional, cell-based; conditions: HT-29, light or radiation study
[8] = Phototoxicity against mouse 4T1 cells assessed as inhibition of cell growth incubated for 24 hrs measured under normoxia conditions and after one-photon excitation upon irradiation with light at 520 nm, 200 mW/cm2 for 10 mins by MTT assay; type: functional, cell-based; conditions: 4T1, light or radiation study
[9] = system: HT-29; test: Cytotoxicity against human HT-29 cells assessed as inhibition of cell growth incubated for 24 hrs measured under normoxia conditions by MTT assay; type: functional, cell-based; conditions: HT-29, 24 h
[10] = system: 4T1; test: Phototherapeutic index, ratio of IC50 for cytotoxicity against mouse 4T1 cells measured under normoxia conditions to IC50 for phototoxicity against mouse 4T1 cells measured under normoxia conditions and after one-photon excitation upon irradiation with light at 520 nm, 200 mW/cm2 for 10 mins; type: functional
[11] = Phototoxicity against human A549 cells assessed as inhibition of cell growth incubated for 24 hrs measured under normoxia conditions and after one-photon excitation upon irradiation with light at 520 nm, 200 mW/cm2 for 10 mins by MTT assay; type: functional, cell-based; conditions: A549, light or radiation study
[12] = Phototherapeutic index, ratio of IC50 for cytotoxicity against human A549 cells measured under normoxia conditions to IC50 for phototoxicity against human A549 cells measured under normoxia conditions and after one-photon excitation upon irradiation with light at 520 nm, 200 mW/cm2 for 10 mins; type: functional

Row | Structure (SMILES) | Activity [1] | IC50 [2] | Activity [3] | Activity [4] | Ratio IC50 [5] | IC50 [6] | IC50 [7] | IC50 [8] | IC50 [9] | Ratio IC50 [10] | IC50 [11] | Ratio IC50 [12]
1 | CCn1c2ccc(/C=C/c3cc[n+](C)c4ccccc34)cc2c2cc([N+](=O)[O-])ccc21.I | Active | > 100 µM | Active | 0.13 | 16 | 20.1 µM | 3.55 µM | 4.81 µM | 59.4 µM | 4 | 4.11 µM | –
2 | CCn1c2ccc(N)cc2c2cc(/C=C/c3cc[n+](C)c4ccccc34)ccc21.[I-] | Active | 22.4 µM | Active | 0.04 | 7 | 20.3 µM | 2.77 µM | 3.66 µM | 19.3 µM | 5 | 2.23 µM | 10
